From patent US20260184675A1, “CHIRAL ISOMERIC SULFITE COMPOUND AND APPLICATION THEREOF” (Chengdu Hanova BioSciences Co., Ltd, priority 2024, published 2026)

Tests used:
Magnaporthe grisea = assay type: cell-based; details: 100 ppm; for Average antifungal rate (%) / Antifungal rate of Magnaporthe grisea (%), Replicate 1 / Antifungal rate of Magnaporthe grisea (%), Replicate 2 / Antifungal rate of Magnaporthe grisea (%), Replicate 3: 96-well plate; for Average antifungal rate (%): average of 3 replicates
[1] = tested on: pest eggs of Tetranychus cinnabarinus; assay: Effect on hatching of pest eggs of Tetranychus cinnabarinus, leaf disc method; assay type: in vivo; details: for Hatching rate (%): 7 days after insecticide delivery; for inhibitory effect on the hatching of pest eggs of Tetranychus cinnabarinus (in words): 1 ppm
How it was run: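 Adult female mites laid eggs on 2.0 cm Vicia faba leaf discs for up to 36 h; discs with counted eggs were dipped 10 s in compound solution or water, then kept moist. Hatched eggs were counted 7 days after treatment and control effect was calculated by formula.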

[2] = tested on: eggs of Spodoptera litura; assay: Effect on hatching of eggs of Spodoptera litura, egg piece soaking; assay type: in vivo; details: 500 ppm; for Hatching rate (%), Replicate 1 / Hatching rate (%), Replicate 2 / Hatching rate (%), Replicate 3 / Number of unhatched larvae 4 days after insecticide delivery, Replicate 1 / Number of unhatched larvae 4 days after insecticide delivery, Replicate 2 / Number of unhatched larvae 4 days after insecticide delivery, Replicate 3: Spodoptera litura eggs; for Hatching rate (%), Replicate 1 / Hatching rate (%), Replicate 2 / Hatching rate (%), Replicate 3: 4 days after delivery; for Number of unhatched larvae 4 days after insecticide delivery, Replicate 1 / Number of unhatched larvae 4 days after insecticide delivery, Replicate 2 / Number of unhatched larvae 4 days after insecticide delivery, Replicate 3: soaked 10 minutes
How it was run: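 Egg pieces of about 60 eggs were soaked 10 min in test agent at 500 ppm, blotted, then held singly at 24±1 °C, 80±10% RH, 12:12 L:D. Hatched and unhatched eggs were counted on day 4 to give hatching rate and control effect; 3 replicates.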

| SMILES | inhibitory rate against Magnaporthe grisea (in words) (Magnaporthe grisea) | Average antifungal rate (%) (Magnaporthe grisea) | Antifungal rate of Magnaporthe grisea (%), Replicate 1 (Magnaporthe grisea) [%] | Antifungal rate of Magnaporthe grisea (%), Replicate 2 (Magnaporthe grisea) [%] | Antifungal rate of Magnaporthe grisea (%), Replicate 3 (Magnaporthe grisea) [%] | Hatching rate (%) ([1]; 0.25 mg/L, Replicate 1) | Hatching rate (%) ([1]; 0.25 mg/L, Replicate 2) | Number of hatched larvae 7 days after insecticide delivery ([1]; 0.25 mg/L, Replicate 1) | Number of hatched larvae 7 days after insecticide delivery ([1]; 0.25 mg/L, Replicate 2) | Hatching rate (%) ([1]; 0.5 mg/L, Replicate 1) | Hatching rate (%) ([1]; 0.5 mg/L, Replicate 2) | Number of hatched larvae 7 days after insecticide delivery ([1]; 0.5 mg/L, Replicate 1) | Number of hatched larvae 7 days after insecticide delivery ([1]; 0.5 mg/L, Replicate 2) | inhibitory effect on the hatching of pest eggs of Tetranychus cinnabarinus (in words) [1] | Hatching rate (%), Replicate 1 [2] [%] | Hatching rate (%), Replicate 2 [2] [%] | Hatching rate (%), Replicate 3 [2] [%] | Number of unhatched larvae 4 days after insecticide delivery, Replicate 1 [2] | Number of unhatched larvae 4 days after insecticide delivery, Replicate 2 [2] | Number of unhatched larvae 4 days after insecticide delivery, Replicate 3 [2] | also measured |
| --- | --- | --- | --- | --- | --- | --- | --- | --- | --- | --- | --- | --- | --- | --- | --- | --- | --- | --- | --- | --- | --- |
| CC[C@@H](COS(=O)OCCF)Oc1ccc(Cl)cc1Cl (stereo partly drawn) [19′-(S,S)] | strong inhibitory rate | 97.09 | 97.41 | 96.58 | 97.29 | 40.82 | 39.73 | 29 | 44 | 5.71 | 3.57 | 66 | 54 | excellent inhibitory effects |  |  |  |  |  |  | Hatching rate (%) ([1]; 1 mg/L, Replicate 1): 0.00%; Hatching rate (%) ([1]; 1 mg/L, Replicate 2): 0.00%; Number of hatched larvae 7 days after insecticide delivery ([1]; 1 mg/L, Replicate 1): 56; Number of hatched larvae 7 days after insecticide delivery ([1]; 1 mg/L, Replicate 2): 49; inhibitory activity on the hatching of eggs of Spodoptera litura (in words) [2]: good inhibitory activities; Hatching rate (%), Replicate 1 ([2]; listed as 19′-(S, S)): 17.54%; Hatching rate (%), Replicate 2 ([2]; listed as 19′-(S, S)): 19.70%; Hatching rate (%), Replicate 3 ([2]; listed as 19′-(S, S)): 18.87%; Number of unhatched larvae 4 days after insecticide delivery, Replicate 1 ([2]; listed as 19′-(S, S)): 47; Number of unhatched larvae 4 days after insecticide delivery, Replicate 2 ([2]; listed as 19′-(S, S)): 53; Number of unhatched larvae 4 days after insecticide delivery, Replicate 3 ([2]; listed as 19′-(S, S)): 43 |
| CC(COS(=O)OCCF)Oc1ccc(Cl)cc1Cl (stereo not shown) [Compound 1] | strong inhibitory rate | 95.42 | 96.34 | 95.11 | 94.82 | 72.22 | 67.92 | 20 | 17 | 32.58 | 38.30 | 42 | 29 | excellent inhibitory effects | 41.38 | 39.68 | 40.42 | 34 | 38 | 37 | Hatching rate (%) ([1]; 1 mg/L, Replicate 1): 0.00%; Hatching rate (%) ([1]; 1 mg/L, Replicate 2): 1.64%; Number of hatched larvae 7 days after insecticide delivery ([1]; 1 mg/L, Replicate 1): 53; Number of hatched larvae 7 days after insecticide delivery ([1]; 1 mg/L, Replicate 2): 60 |
| CC(COc1ccc(Cl)cc1Cl)OS(=O)OCCF (stereo not shown) [Compound 1′] | strong inhibitory rate | 94.28 | 95.78 | 98.76 | 88.30 | 69.81 | 70.83 | 16 | 21 | 36.24 | 31.11 | 42 | 31 | excellent inhibitory effects | 40.68 | 40.32 | 39.06 | 35 | 37 | 39 | Hatching rate (%) ([1]; 1 mg/L, Replicate 1): 0.00%; Hatching rate (%) ([1]; 1 mg/L, Replicate 2): 1.69%; Number of hatched larvae 7 days after insecticide delivery ([1]; 1 mg/L, Replicate 1): 47; Number of hatched larvae 7 days after insecticide delivery ([1]; 1 mg/L, Replicate 2): 58 |
| CC(C)(COc1ccc(Cl)cc1Cl)OS(=O)OCCF (stereo not shown) [Compound 10] | strong inhibitory rate | 94.26 | 93.89 | 94.52 | 94.36 |  |  |  |  |  |  |  |  | excellent inhibitory effects | 41.27 | 40.98 | 42.11 | 37 | 36 | 33 |  |
| CC(C)(COS(=O)OCCF)Oc1ccc(Cl)cc1Cl (stereo not shown) [Compound 10′] | strong inhibitory rate | 94.31 | 94.01 | 95.16 | 93.77 |  |  |  |  |  |  | 47 |  | excellent inhibitory effects | 40.63 | 41.94 | 42.37 | 38 | 36 | 34 |  |
| CCC(COc1ccc(Cl)cc1Cl)OS(=O)OCCF (stereo not shown) [Compound 19] | strong inhibitory rate | 95.57 | 97.23 | 95.14 | 94.35 | 72.22 | 69.74 | 15 | 23 | 34.69 | 30.49 | 32 | 57 | excellent inhibitory effects | 29.41 | 30.16 | 29.82 | 36 | 44 | 40 | Hatching rate (%) ([1]; 1 mg/L, Replicate 1): 0.00%; Hatching rate (%) ([1]; 1 mg/L, Replicate 2): 0.00%; Number of hatched larvae 7 days after insecticide delivery ([1]; 1 mg/L, Replicate 1): 71; Number of hatched larvae 7 days after insecticide delivery ([1]; 1 mg/L, Replicate 2): 65 |
| CCC(COS(=O)OCCF)Oc1ccc(Cl)cc1Cl (stereo not shown) [Compound 19′] | strong inhibitory rate | 92.59 | 91.33 | 93.48 | 92.95 | 70.21 | 73.24 | 14 | 19 | 34.72 | 34.43 | 47 | 40 | excellent inhibitory effects | 32.76 | 32.14 | 35.94 | 39 | 38 | 41 | Hatching rate (%) ([1]; 1 mg/L, Replicate 1): 1.89%; Hatching rate (%) ([1]; 1 mg/L, Replicate 2): 0.00%; Number of hatched larvae 7 days after insecticide delivery ([1]; 1 mg/L, Replicate 1): 52; Number of hatched larvae 7 days after insecticide delivery ([1]; 1 mg/L, Replicate 2): 63 |
| CC(C)(COc1ccc(Cl)cc1Cl)OS(=O)OCCF (stereo not shown) [Compound R-10] | strong inhibitory rate | 82.52 | 81.97 | 83.68 | 81.92 | 73.21 | 74.03 | 15 | 20 | 42.67 | 41.94 | 28 | 36 |  | 60.87 | 64.15 | 62.07 | 27 | 19 | 22 | Hatching rate (%) ([1]; 1 mg/L, Replicate 1): 8.11%; Hatching rate (%) ([1]; 1 mg/L, Replicate 2): 6.25%; Number of hatched larvae 7 days after insecticide delivery ([1]; 1 mg/L, Replicate 1): 68; Number of hatched larvae 7 days after insecticide delivery ([1]; 1 mg/L, Replicate 2): 60 |
